{
  "source": "patent US12350259B2",
  "about": "“Methods of treating migraine” (Allergan Pharmaceuticals International Limited, priority 2021, dated 2025)",
  "key": {"[1]": {"test": "Hepatic impairment study: atogepant plasma protein binding", "type": "in vitro ADME, human", "conditions": "human, plasma, oral, 60 mg, 2 hr post dose, read-out: plasma protein binding, percent bound (converted)", "procedure": "(§1) Protein binding blood samples were collected from all participants starting on Day 1 at 0 hour (predose) and at 2 hours post dose. The pre-dose samples collected prior to dosing for each participant were externally spiked with known quantities of atogepant. Percent bound atogepant was determined in the 2-hour sample using direct measurement of the atogepant concentrations in the blood sample."}, "plasma protein": {"test_system": "plasma protein", "test": "Hepatic impairment study: atogepant plasma protein binding", "type": "in vitro ADME, human", "conditions": "for fraction unbound: human, 0 hr (predose, spiked sample), read-out: plasma protein binding, percent bound (converted); for plasma protein binding, percent bound: 2 hr post dose", "procedure": "as §1"}, "[2]": {"test": "Atogepant-quinidine gluconate interaction study: safety", "type": "in vivo, human", "conditions": "atogepant 60 mg alone or with quinidine gluconate", "text": "Atogepant PK parameters calculated were peak plasma concentration (Cmax); time to Cmax (tmax); and area under plasma concentration—time curve from time 0 to time t (AUC0-t) and infinity (AUC0-∞). […] Safety assessments included clinical laboratory values, vital signs, electrocardiograms, and […] adverse events (TEAEs)."}, "[3]": {"test_system": "patients with episodic migraine", "test": "Study 2 (NCT02848326): preventive treatment of episodic migraine, efficacy", "type": "in vivo, human", "procedure": "The studies enrolled patients with at least a 1-year history of migraine with or without aura, according to the International Classification of Headache Disorders (ICHD-3) diagnostic criteria. In Study 1 (NCT03777059), 910 patients were randomized 1:1:1:1 to receive atogepant 10 mg (N=222), atogepant 30 mg (N=230), atogepant 60 mg (N=235), or placebo (N=223), once daily for 12 weeks. In Study 2 (NCT02848326), 652 patients were randomized 1:2:2:2 to receive atogepant 10 mg (N=94), atogepant 30 mg (N=185), atogepant 60 mg (N=187), or placebo (N=186), once daily for 12 weeks. In both studies, patients were allowed to use acute headache treatments (i.e., triptans, ergotamine derivatives, NSAIDs, acetaminophen, and opioids) as needed. The use of a concomitant medication that acts on the CGRP pathway was not permitted for either acute or preventive treatment of migraine. The studies excluded patients with myocardial infarction, stroke, or transient ischemic attacks within six months prior to screening. The primary efficacy endpoint was the change from baseline in mean monthly migraine days across the 12-week treatment period."}, "[4]": {"test": "Safety in 12-week placebo-controlled Studies 1 and 2", "type": "in vivo, human", "procedure": "The safety of atogepant was evaluated in 1958 patients with migraine who received at least one dose of atogepant. Of these, 839 patients were exposed to atogepant once daily for at least 6 months, and 487 patients were exposed for 12 months. In the 12-week, placebo-controlled clinical studies (Study 1 and Study 2, discussed above in Example 7), 314 patients received at least one dose of atogepant 10 mg once daily, 411 patients received at least one dose of atogepant 30 mg once daily, 417 patients received at least one dose of atogepant 60 mg once daily, and 408 patients received placebo. Approximately 88% were female, 80% were White, 17% were Black, and 12% were of Hispanic or Latino ethnicity. The mean age at study entry was 41 years (range 18 to 74 years)."}, "[5]": {"test": "Excretion after single oral dose of 14C-atogepant", "type": "in vivo, human", "conditions": "single oral dose of 50 mg 14C-atogepant, healthy male subjects", "procedure": "The parent compound (atogepant) and a glucuronide conjugate metabolite (M23) were the most prevalent circulating components in human plasma. […] Following a single oral dose of 50 mg ^14C-atogepant to healthy male subjects, 42% and 5% of the dose was recovered as unchanged atogepant in feces and urine, respectively."}, "CYP3A4 [6]": {"target": "T1, CYP3A4 (Homo sapiens, UniProt P08684)", "T1 sequence (P08684 whole entry)": "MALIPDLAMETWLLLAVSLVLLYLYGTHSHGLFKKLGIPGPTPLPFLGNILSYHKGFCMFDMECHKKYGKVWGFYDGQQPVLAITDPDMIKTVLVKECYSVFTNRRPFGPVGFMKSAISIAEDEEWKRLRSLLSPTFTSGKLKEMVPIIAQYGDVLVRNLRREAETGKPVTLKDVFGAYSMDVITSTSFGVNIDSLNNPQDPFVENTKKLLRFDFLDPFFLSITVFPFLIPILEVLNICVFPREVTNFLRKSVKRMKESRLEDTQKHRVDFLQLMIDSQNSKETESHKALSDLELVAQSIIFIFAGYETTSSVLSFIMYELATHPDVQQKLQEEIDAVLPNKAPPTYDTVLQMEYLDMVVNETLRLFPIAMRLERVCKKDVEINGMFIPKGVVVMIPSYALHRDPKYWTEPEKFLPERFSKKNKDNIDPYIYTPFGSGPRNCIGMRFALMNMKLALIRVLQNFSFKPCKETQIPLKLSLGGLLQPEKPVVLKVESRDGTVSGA", "test": "In vitro CYP inhibition", "type": "in vitro ADME", "conditions": "clinically relevant concentrations"}, "CYP2C19": {"target": "CYP2C19 (Homo sapiens, UniProt P33261)", "sequence (P33261 whole entry)": "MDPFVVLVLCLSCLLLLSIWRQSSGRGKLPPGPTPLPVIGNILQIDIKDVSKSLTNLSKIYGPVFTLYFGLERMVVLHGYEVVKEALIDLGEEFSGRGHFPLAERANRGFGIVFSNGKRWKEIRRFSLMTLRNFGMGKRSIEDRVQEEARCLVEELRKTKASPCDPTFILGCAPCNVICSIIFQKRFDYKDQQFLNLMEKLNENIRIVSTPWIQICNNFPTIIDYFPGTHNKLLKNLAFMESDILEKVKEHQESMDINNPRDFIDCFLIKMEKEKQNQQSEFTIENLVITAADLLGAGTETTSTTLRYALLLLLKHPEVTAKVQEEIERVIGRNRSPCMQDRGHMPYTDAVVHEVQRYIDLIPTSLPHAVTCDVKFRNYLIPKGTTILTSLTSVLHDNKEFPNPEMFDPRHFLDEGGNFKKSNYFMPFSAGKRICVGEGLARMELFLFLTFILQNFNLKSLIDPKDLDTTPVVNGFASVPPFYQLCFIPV", "test": "In vitro CYP inhibition", "type": "in vitro ADME", "conditions": "clinically relevant concentrations"}, "CYP2D6": {"target": "CYP2D6 (Homo sapiens, UniProt P10635)", "sequence (P10635 whole entry)": "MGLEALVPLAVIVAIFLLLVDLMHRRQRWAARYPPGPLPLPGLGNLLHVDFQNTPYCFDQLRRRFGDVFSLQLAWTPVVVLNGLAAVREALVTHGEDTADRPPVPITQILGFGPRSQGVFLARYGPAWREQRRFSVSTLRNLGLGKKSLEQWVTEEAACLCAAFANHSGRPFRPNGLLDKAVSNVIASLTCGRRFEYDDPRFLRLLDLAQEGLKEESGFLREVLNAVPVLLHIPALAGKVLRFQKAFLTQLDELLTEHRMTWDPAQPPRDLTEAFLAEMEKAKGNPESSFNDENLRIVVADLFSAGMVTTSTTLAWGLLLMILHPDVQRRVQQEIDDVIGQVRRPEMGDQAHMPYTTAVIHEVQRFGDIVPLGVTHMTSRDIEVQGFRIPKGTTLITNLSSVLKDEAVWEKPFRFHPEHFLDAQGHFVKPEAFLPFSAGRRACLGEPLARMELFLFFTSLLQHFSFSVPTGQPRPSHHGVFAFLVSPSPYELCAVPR", "test": "In vitro CYP inhibition", "type": "in vitro ADME", "conditions": "clinically relevant concentrations"}, "MAO-A": {"target": "MAO-A (Homo sapiens, UniProt P21397)", "sequence (P21397 whole entry)": "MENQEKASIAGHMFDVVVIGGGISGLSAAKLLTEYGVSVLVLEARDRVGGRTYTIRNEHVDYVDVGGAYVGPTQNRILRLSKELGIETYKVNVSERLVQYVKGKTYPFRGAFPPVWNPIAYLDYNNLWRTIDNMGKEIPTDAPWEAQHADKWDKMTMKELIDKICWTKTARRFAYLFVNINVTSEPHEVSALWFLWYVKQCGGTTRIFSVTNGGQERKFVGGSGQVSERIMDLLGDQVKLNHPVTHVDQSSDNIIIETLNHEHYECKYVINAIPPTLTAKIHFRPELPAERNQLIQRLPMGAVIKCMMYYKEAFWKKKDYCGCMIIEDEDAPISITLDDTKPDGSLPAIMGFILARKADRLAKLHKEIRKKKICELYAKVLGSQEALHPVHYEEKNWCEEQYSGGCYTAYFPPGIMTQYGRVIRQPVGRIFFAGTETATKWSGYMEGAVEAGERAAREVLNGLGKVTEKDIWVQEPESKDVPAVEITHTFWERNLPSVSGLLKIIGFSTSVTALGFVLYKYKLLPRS", "test": "Enzyme inhibition", "type": "in vitro ADME", "conditions": "clinically relevant concentrations"}, "CYP1A2": {"test_system": "CYP1A2", "test": "CYP induction", "type": "in vitro ADME", "conditions": "clinically relevant concentrations"}, "OCT1": {"target": "OCT1 (Homo sapiens, UniProt O15245)", "sequence (O15245 whole entry)": "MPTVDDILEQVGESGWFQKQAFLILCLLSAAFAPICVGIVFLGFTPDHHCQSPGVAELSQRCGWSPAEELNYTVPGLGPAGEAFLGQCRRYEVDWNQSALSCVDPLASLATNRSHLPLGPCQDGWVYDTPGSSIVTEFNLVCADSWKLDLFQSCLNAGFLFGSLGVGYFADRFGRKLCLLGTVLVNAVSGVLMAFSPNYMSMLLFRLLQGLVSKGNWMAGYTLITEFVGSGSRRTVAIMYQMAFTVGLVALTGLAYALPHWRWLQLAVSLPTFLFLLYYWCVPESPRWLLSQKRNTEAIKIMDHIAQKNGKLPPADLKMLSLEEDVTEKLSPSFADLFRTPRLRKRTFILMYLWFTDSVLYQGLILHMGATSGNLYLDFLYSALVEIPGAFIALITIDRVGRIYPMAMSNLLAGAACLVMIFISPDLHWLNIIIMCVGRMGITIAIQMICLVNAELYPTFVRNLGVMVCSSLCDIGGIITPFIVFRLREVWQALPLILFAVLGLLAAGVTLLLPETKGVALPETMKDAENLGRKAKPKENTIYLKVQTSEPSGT", "test": "Transporter inhibition", "type": "in vitro ADME"}, "CYP3A4 [7]": {"target": "T1, CYP3A4", "test": "Elimination by metabolism", "type": "in vitro ADME"}, "[8]": {"conditions": "Study 2, atogepant 10 mg once daily"}, "[9]": {"conditions": "Study 2, atogepant 30 mg once daily"}, "[10]": {"conditions": "Study 2, atogepant 60 mg once daily"}, "[11]": {"conditions": "Studies 1 and 2, atogepant 10 mg (N = 314)"}, "[12]": {"conditions": "Studies 1 and 2, atogepant 30 mg (N = 411)"}, "[13]": {"conditions": "Studies 1 and 2, atogepant 60 mg (N = 417)"}},
  "note": "Like-named read-outs stand apart in the source and are kept apart here.",
  "data": [
    {"smiles": "C[C@@H]1[C@H](c2c(F)ccc(F)c2F)C[C@H](NC(=O)c2cnc3c(c2)C[C@@]2(C3)C(=O)Nc3ncccc32)C(=O)N1CC(F)(F)F", "note": "[atogepant, (3′S)-N-[(3S,5S,6R)-6-methyl-2-oxo-1-(2,2,2-trifluoroethyl)-5-(2,3,6-trifluorophenyl)piperidin-3-yl]-2′-oxo-1′,2′,5,7-tetrahydrospiro[cyclopenta[b]pyridine-6,3′-pyrrolo[2,3-b]pyridine]-3-carboxamide]", "values": [
      {"measurement": "fraction unbound at 2 h", "setting": "[1]; mild-impaired", "value": 0.026},
      {"measurement": "fraction unbound at 2 h", "setting": "[1]; moderate-impaired", "value": 0.029},
      {"measurement": "fraction unbound at 2 h", "setting": "[1]; normal hepatic function", "value": 0.018},
      {"measurement": "fraction unbound at 2 h", "setting": "[1]; severe-impaired", "value": 0.047},
      {"measurement": "fraction unbound", "setting": "plasma protein; mild-impaired", "value": 0.0297},
      {"measurement": "fraction unbound", "setting": "plasma protein; moderate-impaired", "value": 0.034},
      {"measurement": "fraction unbound", "setting": "plasma protein; normal hepatic function", "value": 0.0211},
      {"measurement": "fraction unbound", "setting": "plasma protein; severe-impaired", "value": 0.0552},
      {"measurement": "plasma protein binding, percent bound", "setting": "plasma protein; mild-impaired", "value": "97.36 ± 0.70", "unit": "%"},
      {"measurement": "plasma protein binding, percent bound", "setting": "plasma protein; moderate-impaired", "value": "97.05 ± 0.62", "unit": "%"},
      {"measurement": "plasma protein binding, percent bound", "setting": "plasma protein; normal hepatic function", "value": "98.21 ± 0.46", "unit": "%"},
      {"measurement": "plasma protein binding, percent bound", "setting": "plasma protein; severe-impaired", "value": "95.34 ± 0.85", "unit": "%"},
      {"measurement": "safety and tolerability", "setting": "[2]", "value": "safe and well tolerated"},
      {"measurement": "Monthly Headache Days across 12 weeks, difference from placebo", "setting": "[3]; [8]", "value": "−1.4"},
      {"measurement": "Monthly Headache Days across 12 weeks, mean change from baseline", "setting": "[3]; [8]", "value": "−4.3"},
      {"measurement": "Monthly Migraine Days (MMD) across 12 weeks, difference from placebo", "setting": "[3]; [8]", "value": "−1.1"},
      {"measurement": "Monthly Migraine Days (MMD) across 12 weeks, mean change from baseline", "setting": "[3]; [8]", "value": "−4.0"},
      {"measurement": "Monthly Headache Days across 12 weeks, difference from placebo", "setting": "[3]; [9]", "value": "−1.2"},
      {"measurement": "Monthly Headache Days across 12 weeks, mean change from baseline", "setting": "[3]; [9]", "value": "−4.2"},
      {"measurement": "Monthly Migraine Days (MMD) across 12 weeks, difference from placebo", "setting": "[3]; [9]", "value": "−0.9"},
      {"measurement": "Monthly Migraine Days (MMD) across 12 weeks, mean change from baseline", "setting": "[3]; [9]", "value": "−3.8"},
      {"measurement": "Monthly Headache Days across 12 weeks, difference from placebo", "setting": "[3]; [10]", "value": "−0.9"},
      {"measurement": "Monthly Headache Days across 12 weeks, mean change from baseline", "setting": "[3]; [10]", "value": "−3.9"},
      {"measurement": "Monthly Migraine Days (MMD) across 12 weeks, difference from placebo", "setting": "[3]; [10]", "value": "−0.7"},
      {"measurement": "Monthly Migraine Days (MMD) across 12 weeks, mean change from baseline", "setting": "[3]; [10]", "value": "−3.6"},
      {"measurement": "discontinuation due to constipation", "setting": "[4]; Studies 1 and 2", "value": 0.5, "unit": "%"},
      {"measurement": "discontinuation due to fatigue/somnolence", "setting": "[4]; Studies 1 and 2", "value": 0.5, "unit": "%"},
      {"measurement": "discontinuation due to nausea", "setting": "[4]; Studies 1 and 2", "value": 0.5, "unit": "%"},
      {"measurement": "proportion of patients with a weight decrease of at least 7% at any point", "setting": "[4]; Studies 1 and 2, atogepant 10 mg", "value": 3.8, "unit": "%"},
      {"measurement": "Constipation, incidence", "setting": "[4]; [11]", "value": 6, "unit": "%"},
      {"measurement": "Decreased Appetite, incidence", "setting": "[4]; [11]", "value": 2, "unit": "%"},
      {"measurement": "Fatigue/Somnolence, incidence", "setting": "[4]; [11]", "value": 4, "unit": "%"},
      {"measurement": "Nausea, incidence", "setting": "[4]; [11]", "value": 5, "unit": "%"},
      {"measurement": "proportion of patients with a weight decrease of at least 7% at any point", "setting": "[4]; Studies 1 and 2, atogepant 30 mg", "value": 3.2, "unit": "%"},
      {"measurement": "Constipation, incidence", "setting": "[4]; [12]", "value": 6, "unit": "%"},
      {"measurement": "Decreased Appetite, incidence", "setting": "[4]; [12]", "value": 1, "unit": "%"},
      {"measurement": "Fatigue/Somnolence, incidence", "setting": "[4]; [12]", "value": 4, "unit": "%"},
      {"measurement": "Nausea, incidence", "setting": "[4]; [12]", "value": 6, "unit": "%"},
      {"measurement": "proportion of patients with a weight decrease of at least 7% at any point", "setting": "[4]; Studies 1 and 2, atogepant 60 mg", "value": 4.9, "unit": "%"},
      {"measurement": "Constipation, incidence", "setting": "[4]; [13]", "value": 6, "unit": "%"},
      {"measurement": "Decreased Appetite, incidence", "setting": "[4]; [13]", "value": 2, "unit": "%"},
      {"measurement": "Fatigue/Somnolence, incidence", "setting": "[4]; [13]", "value": 6, "unit": "%"},
      {"measurement": "Nausea, incidence", "setting": "[4]; [13]", "value": 9, "unit": "%"},
      {"measurement": "severe liver injury or jaundice", "setting": "[4]; Study 1 and Study 2", "value": "no cases"},
      {"measurement": "rate of transaminase elevations over 3 times the upper limit of normal", "setting": "[4]; Study 1 and Study 2, patients treated with atogepant", "value": 1.0, "unit": "%"},
      {"measurement": "time to resolution of transaminase elevations after discontinuation", "setting": "[4]; cases temporally associated with atogepant treatment, asymptomatic", "value": "≤ 8", "unit": "weeks"},
      {"measurement": "dose recovered as unchanged atogepant in feces", "setting": "[5]", "value": 42, "unit": "%"},
      {"measurement": "dose recovered as unchanged atogepant in urine", "setting": "[5]", "value": 5, "unit": "%"},
      {"measurement": "inhibition of CYP3A4", "setting": "CYP3A4 [6]", "value": "not an inhibitor"},
      {"measurement": "inhibition of CYP2C19", "setting": "CYP2C19", "value": "not an inhibitor"},
      {"measurement": "inhibition of CYP2D6", "setting": "CYP2D6", "value": "not an inhibitor"},
      {"measurement": "inhibition of MAO-A", "setting": "MAO-A", "value": "does not inhibit"},
      {"measurement": "induction of CYP1A2", "setting": "CYP1A2", "value": "not an inducer"},
      {"measurement": "inhibition of OCT1", "setting": "OCT1", "value": "weak inhibitor"},
      {"measurement": "route of elimination (metabolism)", "setting": "CYP3A4 [7]", "value": "primarily by CYP3A4"}
    ]}
  ]
}
